Results on three compounds are retold here after patent US5409933A, “Quinoline derivatives and processes for preparing the same” (priority 1993, dated 1995).

Molecules are shown by their SMILES. Counter-ions that a name gives are not always drawn. Like-named read-outs stand apart in the source and are kept apart here. Some results are limits rather than exact numbers.

For orientation: MIC means the lowest concentration that inhibits growth of the organism.

Common to all, as to assay: In Vitro Anti-Bacterial Activity Test (MIC, agar dilution)
Assay type in all cases: cell-based
In general terms: In agar dilution, organisms are placed on agar that contains the substance at set levels.

The subject of assay [1] is Streptococcus pyogenes 308A. To be noted: Muller-Hinton agar, 37° C., 18 hours, read-out: MIC. The procedure, abridged:
(§1)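 Via the agar dilution method, compound-supplemented Muller-Hinton plates received 10^7 C.F.U./ml inocula. Incubation ran 18 hours at 37° C., and MIC corresponded to the lowest concentration without growth.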

Assay [2] has as its system Escherichia coli 1507E. The settings on record: Muller-Hinton agar, 37° C. In a few lines: as §1
The subject of assay [3] is Escherichia coli TEM. The settings on record: Escherichia coli, 18 h, Muller-Hinton agar, 37° C. The procedure, abridged: (§2)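 Agar-incorporation MIC: Muller-Hinton medium, 10^7 C.F.U./ml inoculum, 18 h incubation at 37° C., growth checked by eye; ciprofloxacin reference.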
The test system of assay [4] is Staphylococcus aureus 285. The settings on record: Staphylococcus aureus, 285, 18 h, Staphylococcus aureus 285; Muller-Hinton agar, 37° C., 18 hours; read-out: MIC. The procedure, abridged:
as §1

Assay [5] relates to Staphylococcus aureus SG511. The settings on record: Staphylococcus aureus SG511; Muller-Hinton agar, 37° C., 18 hours; read-out: MIC. The procedure, abridged:
as §1

In assay [6] the test system is Streptococcus pyogenes 77A. The procedure, abridged: as §1
The test system of assay [7] is Staphylococcus aureus 503. The settings on record: Staphylococcus aureus 503; Muller-Hinton agar, 37° C., 18 hours; read-out: MIC. In a few lines:
as §1

The test system of assay [8] is Pseudomonas aeruginosa 1771M. The settings on record: Pseudomonas aeruginosa, 1771M, 18 h, Muller-Hinton agar, 37° C. In a few lines:
as §1

Assay [9] concerns Enterobacter cloacae P99. To be noted: Enterobacter cloacae, P99, 18 h. In a few lines:
as §2

The test system of assay [10] is Enterobacter cloacae 1321E. The settings on record: Enterobacter cloacae 1321E; Muller-Hinton agar, 37° C., 18 hours; read-out: MIC. The procedure, abridged:
as §1

Assay [11] relates to Streptococcus faecium MD8b. The settings on record: Enterococcus faecium, Muller-Hinton agar, 37° C., 18 hours, read-out: MIC. In a few lines: as §1
Assay [12] relates to Klebsiella oxytoca 1082E. The settings on record: Klebsiella oxytoca 1082E; Muller-Hinton agar, 37° C., 18 hours; read-out: MIC. In a few lines:
as §1

The subject of assay [13] is Klebsiella aerogenes 1522E. To be noted: Klebsiella aerogenes, 1522E, 18 h, Klebsiella aerogenes 1522E; Muller-Hinton agar, 37° C., 18 hours; read-out: MIC. In a few lines: as §1
For assay [14], the system named is Pseudomonas aeruginosa 1771. The settings on record: Pseudomonas aeruginosa 1771; Muller-Hinton agar, 37° C., 18 hours; read-out: MIC. In a few lines: as §1
Assay [15] has as its system Escherichia coli 078. The procedure, abridged: as §1
Assay [16] concerns Pseudomonas aeruginosa 9027. To be noted: Muller-Hinton agar, 37° C., 18 hours, read-out: MIC. In a few lines: as §1
Assay [17] deals with Escherichia coli DC0. To be noted: Muller-Hinton agar, 37° C., 18 hours, read-out: MIC. In a few lines:
as §1

Assay [18] relates to Pseudomonas aeruginosa 1592E. To be noted: Muller-Hinton agar, 37° C., 18 hours, read-out: MIC. The procedure, abridged:
as §1

Assay [19] deals with Escherichia coli DC2. To be noted: Escherichia coli, DC2, 18 h. The procedure, abridged: as §1
Assay [20] deals with Salmonella typhimurium. To be noted: Salmonella enterica; Salmonella typhimurium; Muller-Hinton agar, 37° C., 18 hours; read-out: MIC. In a few lines: as §1
Setting [21] is: Streptococcus pyogenes 77A, Muller-Hinton agar, 37° C., 18 hours, read-out: MIC.
The mark [22] stands for this setting: Escherichia coli 078, Muller-Hinton agar, 37° C., 18 hours, read-out: MIC.

For the compound `CCOC(=O)CC(=O)c1cn(C2CC2)c2c(Cl)c(N3CCC(N)C3)c(F)cc2c1=O` (stereo not drawn) [Example 25, 1-cyclopropyl-6-fluoro-8-chloro-7-(3-aminopyrrolidin-1-yl)-3-(2-ethoxycarbonylacetyl)-1,4-dihydro-4-oxoquinoline hydrochloride], the minimal inhibitory concentration (MIC) in [1] is 0.781 µg/mL; in assay [2] (Escherichia coli, 1507E, 18 h), 0.025 µg/mL; in assay [3] it was under 0.002 µg/mL; in assay [4], 0.049 µg/mL; in [5] it was 0.098 µg/mL; in assay [6] (setting [21]), 0.391 µg/mL. Also, the MIC in assay [7] was 0.049 µg/mL; in [8] it was 0.098 µg/mL; in assay [9], 0.004 µg/mL; in [10], under 0.002 µg/mL; in assay [11] it was 0.391 µg/mL; in assay [12], under 0.002 µg/mL. Further, the MIC was 0.013 µg/mL in assay [13]; 0.195 µg/mL in assay [14]; under 0.002 µg/mL in assay [15] (setting [22]); 0.391 µg/mL in [16]; 0.098 µg/mL in assay [17]; 0.195 µg/mL in assay [18]. Moreover, the values for the MIC in assay [19] and in assay [20] were 0.025 µg/mL and 0.004 µg/mL, respectively.

Consider `NC1CCN(c2c(F)cc3c(=O)c(C(=O)C[N+](=O)[O-])cn(C4CC4)c3c2Cl)C1` (stereo not drawn) [Example 11, 1-cyclopropyl-6-fluoro-8-chloro-7-(3-aminopyrrolidin-1-yl)-3-(2-nitroacetyl)-1,4-dihydro-4-oxoquinoline hydrochloride], for which the MIC in assay [1] is 0.195 µg/mL; in [2] (18 hours, read-out: MIC) it was under 0.002 µg/mL; in assay [3], under 0.002 µg/mL; in assay [4], 0.025 µg/mL; in [5] it was 0.013 µg/mL; in [6] (setting [21]), 0.098 µg/mL. In addition, the MIC in assay [7] was 0.025 µg/mL; in [8] it was 0.025 µg/mL; in assay [9], under 0.002 µg/mL; in [10], under 0.002 µg/mL; in assay [11], 0.098 µg/mL; in assay [12] it was under 0.002 µg/mL. Also, the MIC in assay [13] was 0.007 µg/mL; in [14] it was 0.098 µg/mL; in assay [15] (setting [22]) it was under 0.002 µg/mL; in [16], 0.195 µg/mL; in [17], 0.049 µg/mL; in assay [18], 0.195 µg/mL. The MIC in assay [19] is 0.013 µg/mL; in assay [20] it was under 0.002 µg/mL.

Consider `CNC1CCN(c2c(F)cc3c(=O)c(C(=O)C[N+](=O)[O-])cn(C4CC4)c3c2OC)C1` (stereo not drawn) [Example 66, 1-cyclopropyl-6-fluoro-8-methoxy-7-(3-methylaminopyrrolidin-1-yl)-3-(2-nitroacetyl)-1,4-dihydro-4-oxoquinoline hydrochloride], for which the MIC in assay [1] came out at 1.56 µg/mL; in [2] (Escherichia coli, 1507E, 18 h), 0.391 µg/mL; in [3], 0.195 µg/mL; in [4], 0.391 µg/mL; in assay [5], 0.391 µg/mL; in assay [6] (Streptococcus pyogenes, 77A, 18 h), 0.781 µg/mL. For the same compound, the MIC was 0.098 µg/mL in [7]; 1.56 µg/mL in assay [8]; 0.195 µg/mL in assay [9]; 0.049 µg/mL in [10]; 0.781 µg/mL in [11]; 0.098 µg/mL in [12]. Besides, the MIC in assay [13] came out at 0.013 µg/mL; in assay [14] it was 1.56 µg/mL; in assay [15] (Escherichia coli, 078, 18 h) it was 0.098 µg/mL; in assay [16], 1.56 µg/mL; in [17], 0.781 µg/mL; in assay [18], 1.56 µg/mL. The results for the MIC in assay [19] and in assay [20] were 0.195 µg/mL and 0.781 µg/mL, respectively.
